Here are results for 14 compounds from patent US11420969B2 (Exonate Limited, priority 2017, dated 2022).

In experiment [1] the target is T1, CYP2C9 (Homo sapiens, UniProt P11712).
T1 construct: from tissue; host or cells: human liver microsomes
Briefly: CYP inhibition assay, human liver microsomes, substrate diclofenac. Type of experiment: in vitro ADME. The following applies: human liver microsomes, 10 min incubation, LC-MS/MS; read-out: CYP Inhibition Activity (IC50/nM) CYP2C9. In outline:
(§1)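 Human liver microsomes with pooled substrates, test compound or positive inhibitor pre-incubated 20 min at 37° C, then NADPH-started reaction for 10 min at 37° C. Stopped with cold acetonitrile; metabolites quantified by LC-MS/MS, giving % inhibition and IC50.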
On the technique in general: Microsomes from liver hold many membrane-bound enzymes, among them those of drug oxidation.

The target of experiment [2] is T2, CYP2D6 (Homo sapiens, UniProt P10635).
T2 construct: from tissue; host or cells: human liver microsomes
Briefly: biochemical. The format is in vitro ADME. The essentials:
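Human liver microsomes (0.253 mg/mL working stock) pre-incubated with compound and substrate pool at 37° C for 20 min. Reaction started with NADPH and run 10 min at 37° C, stopped with cold ACN. Metabolite analysed by LC-MS/MS; % inhibition and IC50 calculated versus inhibitor-free control.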

The target of experiment [3] is T3, CYP2C19 (Homo sapiens, UniProt P33261).
T3 construct: from tissue; host or cells: human liver microsomes
Briefly: CYP inhibition assay, human liver microsomes, substrate S-mephenytoin. The format is in vitro ADME. The conditions noted are these: human liver microsomes, 10 min incubation, LC-MS/MS; read-out: CYP Inhibition Activity (IC50/nM) CYP2C19. The essentials:
as §1

Experiment [4] addresses SRPK1 (Homo sapiens, UniProt Q96SB4). Briefly: In vitro SRPK1 assay (Kinase-Glo). Type of experiment: biochemical. In general terms: Kinase-Glo measures the ATP left after a reaction by luminescence.
For experiment [5], the target named is T4, CYP3A4 (Homo sapiens, UniProt P08684).
T4 construct: from tissue; host or cells: human liver microsomes
Briefly: CYP inhibition assay, human liver microsomes, substrate midazolam. Type of experiment: in vitro ADME. The following applies: human liver microsomes, 10 min incubation, LC-MS/MS; read-out: CYP Inhibition Activity (IC50/nM) CYP3A4. In outline: as §1

Experiment [6] addresses T5, CYP1A2 (Homo sapiens, UniProt P05177).
T5 construct: from tissue; host or cells: human liver microsomes
T5 sequence (P05177 1-516): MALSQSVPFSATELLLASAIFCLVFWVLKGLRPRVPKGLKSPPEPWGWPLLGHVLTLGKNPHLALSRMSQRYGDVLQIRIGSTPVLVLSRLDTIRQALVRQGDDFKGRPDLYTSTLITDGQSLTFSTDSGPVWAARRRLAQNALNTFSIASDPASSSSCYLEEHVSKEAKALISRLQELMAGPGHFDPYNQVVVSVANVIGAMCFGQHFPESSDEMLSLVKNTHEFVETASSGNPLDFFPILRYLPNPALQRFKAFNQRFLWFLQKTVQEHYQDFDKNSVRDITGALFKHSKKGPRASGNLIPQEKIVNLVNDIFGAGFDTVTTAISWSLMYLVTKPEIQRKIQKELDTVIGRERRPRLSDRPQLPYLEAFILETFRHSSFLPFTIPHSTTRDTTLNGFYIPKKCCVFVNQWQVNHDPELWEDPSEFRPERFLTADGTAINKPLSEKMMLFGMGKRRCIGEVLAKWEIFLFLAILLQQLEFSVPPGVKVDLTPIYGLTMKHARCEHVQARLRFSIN
Briefly: CYP inhibition assay, human liver microsomes, substrate tacrine. Type of experiment: in vitro ADME. The conditions noted are these: human liver microsomes, 10 min incubation, LC-MS/MS; read-out: CYP Inhibition Activity (IC50/nM) CYP1A2. The essentials: as §1

Bounds are passed on as bounds.

Sequence of SRPK1 (Q96SB4 whole entry, species assumed): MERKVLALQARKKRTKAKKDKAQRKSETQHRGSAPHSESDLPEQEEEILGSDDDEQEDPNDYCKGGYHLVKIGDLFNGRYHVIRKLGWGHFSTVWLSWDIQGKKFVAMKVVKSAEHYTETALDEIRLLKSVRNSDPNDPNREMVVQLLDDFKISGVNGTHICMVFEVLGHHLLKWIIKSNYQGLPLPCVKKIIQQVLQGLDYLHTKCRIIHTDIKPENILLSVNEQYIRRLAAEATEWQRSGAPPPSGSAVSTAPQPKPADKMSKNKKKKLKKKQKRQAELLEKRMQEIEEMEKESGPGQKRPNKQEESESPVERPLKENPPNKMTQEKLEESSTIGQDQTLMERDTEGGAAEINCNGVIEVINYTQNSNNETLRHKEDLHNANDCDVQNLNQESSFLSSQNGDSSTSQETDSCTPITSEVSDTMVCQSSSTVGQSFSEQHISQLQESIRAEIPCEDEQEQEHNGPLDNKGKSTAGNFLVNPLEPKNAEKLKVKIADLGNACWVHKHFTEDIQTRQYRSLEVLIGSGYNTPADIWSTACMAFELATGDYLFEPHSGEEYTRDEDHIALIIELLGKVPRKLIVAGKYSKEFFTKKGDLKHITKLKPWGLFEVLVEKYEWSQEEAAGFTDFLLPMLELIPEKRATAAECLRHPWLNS
T4 sequence (P08684 whole entry): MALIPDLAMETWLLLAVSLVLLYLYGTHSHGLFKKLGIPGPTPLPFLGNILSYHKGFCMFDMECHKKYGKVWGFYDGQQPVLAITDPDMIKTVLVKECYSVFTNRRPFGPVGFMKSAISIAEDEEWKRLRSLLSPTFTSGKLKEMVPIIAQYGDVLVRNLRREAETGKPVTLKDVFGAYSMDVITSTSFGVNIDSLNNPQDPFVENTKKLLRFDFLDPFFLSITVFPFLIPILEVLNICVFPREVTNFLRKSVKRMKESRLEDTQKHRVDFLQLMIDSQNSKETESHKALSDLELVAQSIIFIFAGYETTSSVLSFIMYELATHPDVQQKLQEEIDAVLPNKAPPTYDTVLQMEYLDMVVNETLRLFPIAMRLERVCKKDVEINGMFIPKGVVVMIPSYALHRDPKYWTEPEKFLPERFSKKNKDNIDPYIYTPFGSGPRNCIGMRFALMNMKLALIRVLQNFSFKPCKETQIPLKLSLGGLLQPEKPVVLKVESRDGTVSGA
T2 sequence (P10635 whole entry): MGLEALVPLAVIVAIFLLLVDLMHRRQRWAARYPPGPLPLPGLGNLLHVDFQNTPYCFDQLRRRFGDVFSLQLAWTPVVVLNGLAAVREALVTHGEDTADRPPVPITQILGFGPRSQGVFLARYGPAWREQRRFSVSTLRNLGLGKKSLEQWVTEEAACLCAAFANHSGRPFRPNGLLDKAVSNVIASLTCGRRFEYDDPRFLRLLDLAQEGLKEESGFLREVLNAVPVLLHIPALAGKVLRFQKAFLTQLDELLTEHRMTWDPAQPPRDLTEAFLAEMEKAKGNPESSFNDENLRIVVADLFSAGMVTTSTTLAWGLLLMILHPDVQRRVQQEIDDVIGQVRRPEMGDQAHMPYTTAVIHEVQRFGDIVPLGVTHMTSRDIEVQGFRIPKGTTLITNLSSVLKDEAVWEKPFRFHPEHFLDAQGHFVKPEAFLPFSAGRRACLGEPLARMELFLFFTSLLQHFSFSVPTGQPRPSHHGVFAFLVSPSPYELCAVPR
T3 sequence (P33261 whole entry): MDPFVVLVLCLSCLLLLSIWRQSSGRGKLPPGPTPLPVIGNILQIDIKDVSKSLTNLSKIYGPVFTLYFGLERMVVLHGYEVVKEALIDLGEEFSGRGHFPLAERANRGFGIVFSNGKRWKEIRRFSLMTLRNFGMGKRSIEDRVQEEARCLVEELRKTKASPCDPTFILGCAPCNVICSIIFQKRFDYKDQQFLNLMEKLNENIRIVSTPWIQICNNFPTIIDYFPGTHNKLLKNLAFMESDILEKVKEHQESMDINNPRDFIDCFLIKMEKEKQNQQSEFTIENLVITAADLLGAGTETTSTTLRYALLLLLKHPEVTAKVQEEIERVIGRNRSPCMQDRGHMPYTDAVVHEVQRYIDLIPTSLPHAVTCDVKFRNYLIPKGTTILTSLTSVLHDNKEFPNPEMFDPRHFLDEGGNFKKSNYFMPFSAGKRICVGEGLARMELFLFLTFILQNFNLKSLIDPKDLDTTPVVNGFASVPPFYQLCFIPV
T1 sequence (P11712 whole entry): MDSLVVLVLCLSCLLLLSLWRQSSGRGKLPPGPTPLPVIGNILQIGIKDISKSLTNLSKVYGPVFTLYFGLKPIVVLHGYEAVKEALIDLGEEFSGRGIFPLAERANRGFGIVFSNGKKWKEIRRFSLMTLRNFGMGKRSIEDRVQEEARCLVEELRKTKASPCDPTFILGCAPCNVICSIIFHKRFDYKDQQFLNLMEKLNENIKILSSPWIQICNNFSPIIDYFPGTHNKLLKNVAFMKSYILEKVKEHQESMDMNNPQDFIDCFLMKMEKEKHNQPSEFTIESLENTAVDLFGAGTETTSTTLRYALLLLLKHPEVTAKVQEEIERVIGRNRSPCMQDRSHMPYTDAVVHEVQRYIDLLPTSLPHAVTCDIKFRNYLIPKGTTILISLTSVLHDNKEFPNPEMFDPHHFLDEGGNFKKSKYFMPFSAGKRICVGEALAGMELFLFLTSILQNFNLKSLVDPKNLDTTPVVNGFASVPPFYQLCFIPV

For the compound `CC1(CO)CCN(c2ccc(C3CC3)cc2NC(=O)c2ccc(C3CCOCC3)o2)CC1` [Example 67, N-(5-cyclopropyl-2-(4-(hydroxymethyl)-4-methylpiperidin-1-yl)phenyl)-5-(tetrahydro-2H-pyran-4-yl)furan-2-carboxamide], the IC50 in experiment [1] was 3300 nM; in experiment [2] it was over 30 µM; in experiment [3] it was 7900 nM; in experiment [4], 4.1 nM; in experiment [5], over 30000 nM; in experiment [6] it was over 30000 nM.

Consider `CC1(CO)CCN(c2ccc(Cl)cc2NC(=O)c2ccc(C3CCOCC3)o2)CC1` [Example 68, N-(5-chloro-2-(4-(hydroxymethyl)-4-methyl-piperidin-1-yl)phenyl)-5-(tetrahydro-2H-pyran-4-yl)furan-2-carboxamide], for which the IC50 is 2800 nM in experiment [1]; 16.1 µM in experiment [2]; 11400 nM in experiment [3]; 1.2 nM in experiment [4]; 10900 nM in experiment [5]; over 30000 nM in experiment [6].

As for `Cc1ccc(N2CCC(O)(CC3CC3)CC2)c(NC(=O)c2ccc(C3CCOCC3)o2)c1` [Example 70, N-(2-(4-(cyclopropylmethyl)-4-hydroxypiperidin-1-yl)-5-methylphenyl)-5-(tetrahydro-2H-pyran-4-yl)furan-2-carboxamide], the IC50 was 1800 nM in experiment [1]; 4.7 µM in experiment [2]; 2200 nM in experiment [3]; 11 nM in experiment [4]; 4400 nM in experiment [5]; over 30000 nM in experiment [6].

On to `O=C(Nc1cc(C2CC2)ccc1N1CCC(O)(CC2CC2)CC1)c1ccc(C2CCOCC2)o1` [Example 71, N-(5-cyclopropyl-2-(4-(cyclopropylmethyl)-4-hydroxypiperidin-1-yl)phenyl)-5-(tetrahydro-2H-pyran-4-yl)furan-2-carboxamide], for which the IC50 in experiment [1] is 5420 nM; in experiment [2], 8.79 µM; in experiment [3], 2700 nM; in experiment [4], 2.9 nM; in experiment [5], 4190 nM; in experiment [6], over 30000 nM.

For the compound `CC1(C(N)=O)CCN(c2ccc(C(F)(F)F)cc2NC(=O)c2ccc(-c3ccncc3)o2)CC1` [Example 72, 4-methyl-1-(2-(5-(pyridin-4-yl)furan-2-carboxamido)-4-(trifluoromethyl)phenyl)-piperidine-4-carboxamide], the IC50 in experiment [1] was 2360 nM; in experiment [2], 4.13 µM; in experiment [3] it was 7540 nM; in experiment [4], 1.9 nM; in experiment [5], 2370 nM; in experiment [6], over 30000 nM.

With `CNC(=O)C1(C)CCN(c2ccc(C(F)(F)F)cc2NC(=O)c2ccc(-c3ccncc3)o2)CC1` [Example 73, N,4-dimethyl-1-(2-(5-(pyridin-4-yl)furan-2-carboxamido)-4-(trifluoromethyl)phenyl)-piperidine-4-carboxamide], the IC50 is 690 nM in experiment [1]; 1.61 µM in experiment [2]; 1870 nM in experiment [3]; 5.6 nM in experiment [4]; 470 nM in experiment [5]; over 30000 nM in experiment [6].

As for `CN(C)C(=O)C1(C)CCN(c2ccc(C(F)(F)F)cc2NC(=O)c2ccc(-c3ccncc3)o2)CC1` [Example 74, N,N,4-trimethyl-1-(2-(5-(pyridin-4-yl)furan-2-carboxamido)-4-(trifluoromethyl)phenyl)-piperidine-4-carboxamide], the IC50 in experiment [1] was 1130 nM; in experiment [2], 1.55 µM; in experiment [3] it was 2890 nM; in experiment [4] it was 2.9 nM; in experiment [5], 720 nM; in experiment [6] it was over 30000 nM.

For `CC1(C(N)=O)CCN(c2ccc(C(F)(F)F)cc2NC(=O)c2ccc(C3CCOCC3)o2)CC1` [Example 75, 4-methyl-1-(2-(5-(tetrahydro-2H-pyran-4-yl)furan-2-carboxamido)-4-(trifluoromethyl)-phenyl)piperidine-4-carboxamide], the IC50 was 4400 nM in experiment [1]; 11.8 µM in experiment [2]; 10800 nM in experiment [3]; 2.8 nM in experiment [4]; 10300 nM in experiment [5]; over 30000 nM in experiment [6].

As for `CNC(=O)C1(C)CCN(c2ccc(C(F)(F)F)cc2NC(=O)c2ccc(C3CCOCC3)o2)CC1` [Example 76, N,4-dimethyl-1-(2-(5-(tetrahydro-2H-pyran-4-yl)furan-2-carboxamido)-4-(trifluoromethyl)-phenyl)piperidine-4-carboxamide], the IC50 in experiment [1] was 1700 nM; in experiment [2] it was 8.68 µM; in experiment [3], 4250 nM; in experiment [4] it was 3.2 nM; in experiment [5], 750 nM; in experiment [6], over 30000 nM.

As for `CN(C)C(=O)C1(C)CCN(c2ccc(C(F)(F)F)cc2NC(=O)c2ccc(C3CCOCC3)o2)CC1` [Example 77, N,N,4-trimethyl-1-(2-(5-(tetrahydro-2H-pyran-4-yl)furan-2-carboxamido)-4-(trifluoromethyl)-phenyl)piperidine-4-carboxamide], the IC50 in experiment [1] is 1440 nM; in experiment [2] it was 9.54 µM; in experiment [3], 4780 nM; in experiment [4], 1.6 nM; in experiment [5] it was 970 nM; in experiment [6] it was over 30000 nM.

As for `CC1(CN)CCN(c2ccc(C(F)(F)F)cc2NC(=O)c2ccc(-c3ccncc3)o2)CC1` [Example 78, N-(2-(4-(aminomethyl)-4-methylpiperidin-1-yl)-5-(trifluoromethyl)phenyl)-5-(pyridin-4-yl)furan-2-carboxamide], the IC50 was 9130 nM in experiment [1]; 1.29 µM in experiment [2]; 20000 nM in experiment [3]; 9.1 nM in experiment [4]; 8320 nM in experiment [5]; over 30000 nM in experiment [6].

For the compound `CNCC1(C)CCN(c2ccc(C(F)(F)F)cc2NC(=O)c2ccc(-c3ccncc3)o2)CC1` [Example 79, N-(2-(4-methyl-4-((methylamino)-methyl)piperidin-1-yl)-5-(trifluoromethyl)phenyl)-5-(pyridin-4-yl)furan-2-carboxamide], the IC50 is over 30000 nM in experiment [1]; 0.4 µM in experiment [2]; 17800 nM in experiment [3]; 263 nM in experiment [4]; 4500 nM in experiment [5]; over 30000 nM in experiment [6].

Consider `CN(C)CC1(C)CCN(c2ccc(C(F)(F)F)cc2NC(=O)c2ccc(-c3ccncc3)o2)CC1` [Example 80, N-(2-(4-((dimethylamino)methyl)-4-methyl-piperidin-1-yl)-5-(trifluoromethyl)phenyl)-5-(pyridin-4-yl)furan-2-carboxamide], for which the IC50 in experiment [1] was 7640 nM; in experiment [2] it was 1.04 µM; in experiment [3], 7340 nM; in experiment [4] it was 42 nM; in experiment [5], 3540 nM; in experiment [6], over 30000 nM.

For `CNCC1(C)CCN(c2ccc(C(F)(F)F)cc2NC(=O)c2ccc(C3CCOCC3)o2)CC1` [Example 82, N-(2-(4-methyl-4-((methylamino)methyl)-piperidin-1-yl)-5-(trifluoromethyl)phenyl)-5-(tetrahydro-2H-pyran-4-yl)furan-2-carboxamide], the IC50 was over 30000 nM in experiment [1]; 2.8 µM in experiment [2]; 29200 nM in experiment [3]; 35 nM in experiment [4]; 6200 nM in experiment [5]; over 30000 nM in experiment [6].
